Where a SMILES comes first, the peptide text is derived from it.
What was measured:
Aβ42 = assay: Atomic force microscopy (AFM) of Aβ42 aggregation; format: biochemical; conditions: 1∶2 molar ratio RI-OR2-TAT:Aβ42 (12.5 µM:25 µM), 24 h, PBS pH 7.4
Protocol: Aβ42 was incubated at 25 µM in the presence or absence of 12.5 µM RI-OR2-TAT in PBS, pH 7.4, for 24 h. Samples were diluted 1∶10 in PBS and then a 2 µl aliquot was deposited onto the surface of freshly cleaned mica and allowed to dry. Images were obtained in tapping mode using a Multimode™ SPM NanoScope IIIa microscope (Digital Instruments, New York, USA). Silicon cantilever tips measuring 125 µm long, 30 µm wide and with a tip radius <10 nm were used (Budget Sensors, Bulgaria). The resonance frequency was 300 kHz and force constants 40 N/m. All images were first order flattened and edited using WSxM 5.0 Develop 4.3 software, (Nanotech, Madrid, Spain).

[1] = system: SHSY-5Y neuroblastoma cells exposed to pre-aggregated Aβ42; assay: Protection against Aβ42 toxicity, LDH assay; format: cell-based; conditions: 0.5, 1, 5 or 10 µM inhibitor, 5 µM pre-aggregated Aβ42, 24 h, Optimem
Protocol: For cell toxicity assays, SHSY-5Y neuroblastoma cells were maintained in 10% Fetal Calf Serum supplemented Dulbecco’s Modified Eagle Medium (DMEM, Gibco) under standard mammalian cell culture conditions. The cells were transferred to sterile 96-well growth plates at 20,000 cells/well and 4 wells per condition. To test for any toxic effects of RI-OR2–TAT alone on the cells, they were left to adhere for 24 h before the addition of the inhibitor (at 12.5, 25, 50, 100 and 200 µM), in DMEM. To assess the ability of RI-OR2–TAT to protect against Aβ toxicity, the cell growth medium was changed to Optimem (Invitrogen) and Aβ42, pre-aggregated (at 100 µM) for 24 h at 25°C in PBS, was added to the cells at a concentration of 5 µM, together with various amounts (0, 0.1, 0.5, 1, 5 or 10 µM) of RI-OR2–TAT. In each case, after a further 24 h incubation period, the viability of the cells was assessed using a CytoTox 96® Non-Radioactive Cytotoxicity Assay (LDH) Assay (Promega) kit.

Human oligomerised Aβ = assay: Soluble Aβ oligomer levels in brain, sandwich ELISA; format: in vivo, human Aβ in APP/PS1 mice; conditions: 100 nmol/kg i.p. once daily, 21 days, 10 months old APP/PS1 mice, vs saline; p<0.01, 4 animals per group
Protocol: (§1) APPswe/PS1ΔE9 mice with a C57Bl/6 background (APP/PS1 mice) were obtained from the Jackson lab (http://research.jax.org/repository/alzheimers.html). […] To look at the effects of RI-OR2-TAT on mouse brain pathology (experiment 2), 8 female 10-months-old APP/PS1 mice were used. The animals were housed in single cages in a temperature controlled holding room (21.5°C±1) with 12∶12 h light and dark cycle. Food and water was available ad libitum.
For experiment 2, 4 animals were injected intraperitonially (i.p.) with 0.9% NaCl (vehicle control) and the other 4 with RI-OR2-TAT (100 nmol/kg in 0.9% NaCl) once daily, for 21 days. On the 22nd day, the animals were perfused transcardially with ice-cold PBS and 4% paraformaldehyde and then the brains were removed and post-fixed in 4% ice cold paraformaldehyde.
Human oligomerised Aβ was measured using a kit purchased from Invitrogen, according to the manufacturer’s instructions. Briefly, the right hemispheres from the brains of transgenic APP/PS1 mice treated with RI-OR2-TAT, or controls, were pooled separately and homogenized. Quantification of total protein was determined using the Bradford protein assay and was measured on a Nanophotometer (Implen, Germany). The homogenates were centrifuged at 100,000 g at 4°C for 1 h. […] The final Aβ oligomer values were determined following normalization of total protein levels.

[2] = system: 8-oxo-guanine in APP/PS1 mouse cortex; assay: Oxidative stress, 8-oxo-guanine immunostaining, cortex; format: in vivo; conditions: 100 nmol/kg i.p. once daily, 21 days, 10 months old APP/PS1 mice, vs saline, p<0.0001, 4 animals per group
Protocol: as §1
For experiment 2, 4 animals were injected intraperitonially (i.p.) with 0.9% NaCl (vehicle control) and the other 4 with RI-OR2-TAT (100 nmol/kg in 0.9% NaCl) once daily, for 21 days. […]
For experiment 2 (effects on brain pathology), sections were examined for activated microglia (using anti-Iba-1 antibody), oxidative stress (anti-8-oxo-guanine antibody), immature neurons (anti-doublecourtin antibody) or total plaque load (anti-Aβ antibody). […] Oxidative stress was assessed by denaturing DNA in each section using 2N HCl and the sections were then stained for 8-oxo guanine (1∶200 dilution, MAB3560, Millipore). Young immature neurons were detected by immunostaining for doublecortin (1∶200 dilution, sc-66911, Santa Cruz Biotechnology). Total plaque load was quantified by immunostaining for β-amyloid (1∶200 dilution, Invitrogen, 71–5800).
All sections were visualized using an Axio Scope 1 fluorescence microscope (Zeiss, Germany). […]

[3] = system: doublecortin-expressing neurons in APP/PS1 mouse dentate gyrus; assay: Young immature neurons, doublecortin immunostaining, dentate region; format: in vivo; conditions: 100 nmol/kg i.p. once daily, 21 days, 10 months old APP/PS1 mice, vs saline, p<0.0001, 4 animals per group

Compound: CC(=O)N[C@H](CCCNC(=N)N)C(=O)NCC(=O)N[C@H](Cc1ccccc1)C(=O)N[C@H](Cc1ccccc1)C(=O)N[C@@H](C(=O)N[C@H](CC(C)C)C(=O)N[C@H](CCCCN)C(=O)NCC(=O)N[C@H](CCCNC(=N)N)C(=O)N[C@H](CCCNC(=N)N)C(=O)N[C@H](CCCNC(=N)N)C(=O)N[C@H](CCCNC(=N)N)C(=O)N[C@H](CCC(N)=O)C(=O)N[C@H](CCCNC(=N)N)C(=O)N[C@H](CCCNC(=N)N)C(=O)N[C@H](CCCCN)C(=O)N[C@H](CCCCN)C(=O)N[C@H](CCCNC(=N)N)C(=O)NCC(=O)N[C@H](Cc1ccc(O)cc1)C(N)=O)C(C)C [RI-OR2-TAT, Ac-rGffvlkGrrrrqrrkkrGy-NH2] (HELM PEPTIDE1{[ac].[dR].G.[dF].[dF].[dV].[dL].[dK].G.[dR].[dR].[dR].[dR].[dQ].[dR].[dR].[dK].[dK].[dR].G.[dY].[am]}$$$$V2.0)
- inhibition of oligomer formation by AFM (Aβ42): clear inhibition of oligomer formation
- protection against toxic effects of pre-aggregated Aβ42 [1]: protected against the toxic effects
- reduction of soluble Aß oligomer levels in brain (Human oligomerised Aβ): 25%
- reduction of 8-oxo-guanine immunostaining (oxidative damage) [2]: 25%
- increase in mean number of young doublecortin-expressing neurons [3]: 210%
